What is called IC50 is the midpoint of a concentration-inhibition curve. A word on the inhibition: it is the relative decrease from the control value, in per cent. The Ki is a measure of affinity in units of concentration, obtained from inhibition or displacement.

The record followed here is ChEMBL document CHEMBL1143181, “2-Aminoresorcinol is a potent alpha-glucosidase inhibitor” (Bioorg Med Chem Lett, 2008).

Experiment [1] addresses T1, Sucrase-isomaltase, intestinal (Rattus norvegicus, UniProt P23739). The experiment can be described thus: Inhibition of rat intestinal sucrase.
The target of experiment [2] is Sucrase-isomaltase, intestinal (Rattus norvegicus) (UniProt P23739). Put plainly: Inhibition of rat intestinal sucrase at 500 uM.
Sucrase-isomaltase, intestinal (Rattus norvegicus), sequence (P23739 1-1013 limits assumed): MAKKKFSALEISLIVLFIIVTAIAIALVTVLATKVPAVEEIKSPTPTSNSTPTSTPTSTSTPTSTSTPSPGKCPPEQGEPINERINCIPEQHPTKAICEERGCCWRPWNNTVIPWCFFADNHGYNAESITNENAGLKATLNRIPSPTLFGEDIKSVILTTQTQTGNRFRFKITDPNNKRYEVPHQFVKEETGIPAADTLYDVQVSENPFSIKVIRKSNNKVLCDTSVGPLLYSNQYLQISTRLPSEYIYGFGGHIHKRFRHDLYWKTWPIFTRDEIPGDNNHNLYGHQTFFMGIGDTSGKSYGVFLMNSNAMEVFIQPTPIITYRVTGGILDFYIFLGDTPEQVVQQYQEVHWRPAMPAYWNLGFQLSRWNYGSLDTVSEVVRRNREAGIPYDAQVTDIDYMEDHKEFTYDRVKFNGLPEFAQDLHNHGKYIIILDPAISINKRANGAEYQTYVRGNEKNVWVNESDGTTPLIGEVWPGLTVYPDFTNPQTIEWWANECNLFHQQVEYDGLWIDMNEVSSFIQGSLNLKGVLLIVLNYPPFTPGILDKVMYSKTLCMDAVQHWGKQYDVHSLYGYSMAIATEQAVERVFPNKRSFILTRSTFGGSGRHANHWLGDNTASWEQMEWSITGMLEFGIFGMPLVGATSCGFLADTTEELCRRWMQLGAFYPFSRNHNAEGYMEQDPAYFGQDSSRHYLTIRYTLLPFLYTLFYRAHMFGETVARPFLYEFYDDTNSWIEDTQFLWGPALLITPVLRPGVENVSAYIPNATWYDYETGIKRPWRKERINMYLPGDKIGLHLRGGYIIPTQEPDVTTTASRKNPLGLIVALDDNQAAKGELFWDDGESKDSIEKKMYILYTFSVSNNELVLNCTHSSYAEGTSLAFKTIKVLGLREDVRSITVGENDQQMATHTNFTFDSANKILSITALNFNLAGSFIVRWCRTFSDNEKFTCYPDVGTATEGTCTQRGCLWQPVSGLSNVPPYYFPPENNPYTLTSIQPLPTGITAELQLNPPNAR
Sucrase-isomaltase, intestinal (Rattus norvegicus), sequence (P23739 1014-1841 limits assumed): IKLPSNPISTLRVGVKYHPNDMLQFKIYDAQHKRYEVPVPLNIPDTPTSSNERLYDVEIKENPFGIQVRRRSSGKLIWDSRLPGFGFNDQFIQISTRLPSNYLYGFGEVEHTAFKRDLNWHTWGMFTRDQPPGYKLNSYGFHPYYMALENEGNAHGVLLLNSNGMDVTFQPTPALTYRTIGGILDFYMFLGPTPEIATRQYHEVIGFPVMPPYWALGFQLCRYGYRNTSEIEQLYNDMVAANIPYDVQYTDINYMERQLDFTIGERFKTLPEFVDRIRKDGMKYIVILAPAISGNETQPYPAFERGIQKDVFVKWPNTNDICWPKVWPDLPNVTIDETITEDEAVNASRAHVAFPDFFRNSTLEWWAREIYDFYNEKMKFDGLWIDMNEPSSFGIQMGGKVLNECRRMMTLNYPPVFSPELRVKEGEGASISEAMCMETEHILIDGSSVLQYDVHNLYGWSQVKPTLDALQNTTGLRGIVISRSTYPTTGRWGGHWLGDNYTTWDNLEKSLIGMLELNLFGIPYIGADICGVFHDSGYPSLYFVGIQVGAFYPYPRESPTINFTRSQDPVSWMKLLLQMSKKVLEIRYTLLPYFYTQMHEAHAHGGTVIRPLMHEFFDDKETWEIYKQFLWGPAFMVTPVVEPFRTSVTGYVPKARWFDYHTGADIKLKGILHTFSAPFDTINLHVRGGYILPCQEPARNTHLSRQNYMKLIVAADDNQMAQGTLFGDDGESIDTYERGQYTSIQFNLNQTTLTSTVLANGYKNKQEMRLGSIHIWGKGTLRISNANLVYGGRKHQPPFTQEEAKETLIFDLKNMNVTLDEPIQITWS
Experiment [3] concerns the target T2, Beta-galactosidase (Bos taurus) (UniProt Q58D55).
T2 sequence (whole entry): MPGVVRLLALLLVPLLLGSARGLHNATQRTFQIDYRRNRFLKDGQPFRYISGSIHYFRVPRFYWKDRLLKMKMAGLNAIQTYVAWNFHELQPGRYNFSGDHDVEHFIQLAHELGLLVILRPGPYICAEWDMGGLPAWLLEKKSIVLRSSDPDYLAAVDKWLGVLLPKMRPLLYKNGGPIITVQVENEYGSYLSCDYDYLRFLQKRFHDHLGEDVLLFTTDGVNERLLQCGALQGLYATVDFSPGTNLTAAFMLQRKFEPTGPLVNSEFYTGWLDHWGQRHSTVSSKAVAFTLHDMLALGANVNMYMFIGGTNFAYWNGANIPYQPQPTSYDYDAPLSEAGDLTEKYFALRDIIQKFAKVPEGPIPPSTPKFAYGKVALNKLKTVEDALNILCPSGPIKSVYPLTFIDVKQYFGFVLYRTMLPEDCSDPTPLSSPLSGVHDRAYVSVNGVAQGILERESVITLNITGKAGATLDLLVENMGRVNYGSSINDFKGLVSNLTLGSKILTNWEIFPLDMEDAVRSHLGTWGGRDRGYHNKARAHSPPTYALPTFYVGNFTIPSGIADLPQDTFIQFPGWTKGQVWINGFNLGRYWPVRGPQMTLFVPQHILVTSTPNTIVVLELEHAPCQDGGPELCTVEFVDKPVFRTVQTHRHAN
The experiment can be described thus: Inhibition of bovine liver beta galactosidase. As to conditions: concentration not given here.

For another experiment, the system named is Prunus dulcis. The experiment can be described thus: Inhibition of almond beta glucosidase. As to conditions: concentration not given here.
The next experiment has as its system Canavalia ensiformis. The experiment can be described thus: Inhibition of jack bean alpha mannosidase. As to conditions: concentration not given here.
For experiment [4], the target named is T3, Alpha-amylase (Sus scrofa domesticus) (UniProt Q7M328).
T3 sequence (whole entry): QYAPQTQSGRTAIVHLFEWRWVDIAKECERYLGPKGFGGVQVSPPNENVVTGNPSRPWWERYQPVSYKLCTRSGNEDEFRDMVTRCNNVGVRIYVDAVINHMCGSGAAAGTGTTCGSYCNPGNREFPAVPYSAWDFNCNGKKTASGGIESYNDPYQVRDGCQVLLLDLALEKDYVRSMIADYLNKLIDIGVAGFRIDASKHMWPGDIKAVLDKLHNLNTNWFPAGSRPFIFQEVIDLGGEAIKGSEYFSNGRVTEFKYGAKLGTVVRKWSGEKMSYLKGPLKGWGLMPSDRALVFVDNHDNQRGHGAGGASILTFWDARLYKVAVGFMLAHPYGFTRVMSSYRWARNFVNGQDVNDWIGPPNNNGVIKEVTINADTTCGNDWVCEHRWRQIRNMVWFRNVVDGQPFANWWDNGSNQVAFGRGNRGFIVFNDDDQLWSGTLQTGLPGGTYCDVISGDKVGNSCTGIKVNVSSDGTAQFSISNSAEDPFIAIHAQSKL
Put plainly: Inhibition of pig pancreas alpha amylase. As to conditions: concentration not given here.

In experiment [5] the target is Alpha-galactosidase (Coffea arabica) (UniProt Q5DUH8). The experiment can be described thus: Inhibition of green coffee bean alpha galactosidase. As to conditions: concentration not given here.
Alpha-galactosidase (Coffea arabica), sequence (Q5DUH8 as listed by the source): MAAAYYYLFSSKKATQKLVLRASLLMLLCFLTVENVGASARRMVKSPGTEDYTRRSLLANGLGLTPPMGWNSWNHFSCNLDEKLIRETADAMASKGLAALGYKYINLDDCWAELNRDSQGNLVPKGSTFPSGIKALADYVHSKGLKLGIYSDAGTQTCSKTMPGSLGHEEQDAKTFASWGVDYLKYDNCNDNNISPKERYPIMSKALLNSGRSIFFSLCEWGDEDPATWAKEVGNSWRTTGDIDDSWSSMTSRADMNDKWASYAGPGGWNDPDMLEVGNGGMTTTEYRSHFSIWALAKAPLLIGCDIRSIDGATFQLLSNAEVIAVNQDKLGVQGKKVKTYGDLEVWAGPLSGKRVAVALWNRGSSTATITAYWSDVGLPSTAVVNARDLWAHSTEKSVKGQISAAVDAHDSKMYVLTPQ
The target of experiment [6] is T1, Sucrase-isomaltase, intestinal. The experiment can be described thus: Inhibition of sucrose hydrolyzing activity of rat intestinal alpha glucosidase.
For experiment [7], the target named is Sucrase-isomaltase, intestinal (Rattus norvegicus) (UniProt P23739). The experiment can be described thus: Inhibition of rat intestinal isomaltase at 500 uM.

T1 sequence (P23739 1-1013 limits assumed): as the sequence (P23739 1-1013 limits assumed) above
T1 sequence (P23739 1014-1841 limits assumed): as the sequence (P23739 1014-1841 limits assumed) above

`N[C@H]1[C@H](O)CCC[C@@H]1O` returned an IC50 in experiment [1] greater than 500 µM. Also, the inhibition in experiment [2] was found to be 10%.

As to `CC(=O)c1ccc(O)c(N)c1O`, the inhibition was determined as 5% in [3]; 7% in the experiment with Prunus dulcis; 4% in the experiment with Canavalia ensiformis; 15% in experiment [4]; 10% in experiment [5]. The same compound came in with an IC50 in [1] of 3.6 µM.

In [1], `O=c1cc(-c2ccccc2)oc2cc(O)c(O)c(O)c12` [BAICALEIN] gave an IC50 of 52 µM.

As for `Nc1ccc(O)cc1O`, in experiment [1], the IC50 was greater than 500 µM. The inhibition in experiment [2] stood at 46%.

With `Nc1c(O)cccc1O`, the inhibition in experiment [3] was 4%; in the experiment with Prunus dulcis, 12%; with Canavalia ensiformis it was 3%; in experiment [4] it was 11%; in experiment [5], 8%. The same compound yielded an IC50 in experiment [1] of 4.2 µM. The compound further showed a Ki in [6] of 4.2 µM.

The compound `Oc1cccc(O)c1O` [PYROGALLOL] returned an IC50 in [1] greater than 500 µM. The inhibition in experiment [2] was 42%.

On to `Nc1c(O)cc2oc(-c3ccccc3)cc(=O)c2c1O`, for which the inhibition worked out at 10% in [3]; 19% with Prunus dulcis; 7% in the experiment with Canavalia ensiformis; 32% in experiment [7]; 12% in experiment [4]; 6% in experiment [5]. This compound also displayed an IC50 in experiment [1] of 2.4 µM.
